The source of these data is patent US20230339981A1, “KRAS G12D MODULATING COMPOUNDS” (priority 2022, published 2023).

One test deals with GDP-loaded KRAS G12D (Homo sapiens (Human), UniProt P01116, G12D). As to the kind of experiment: KRAS G12D (GDP) biochemical assay (TR-FRET probe displacement). The following applies: 2 hours. The test is classed as binding. The method, then:
Example A. KRAS G12D (GDP) Biochemical Assay
Compounds were tested for binding to GDP-loaded KRAS G12D in a 384-well assay format using a TR-FRET probe displacement assay in buffer consisting of 50 mM Hepes (pH 7.4), 150 mM NaCl, 5 mM MgCl2 and 0.005% Tween-20. […] Compounds were serially diluted (1:3) in DMSO. The LabCyte ECHO Acoustic dispenser system was used to pre-spot the assay plates (384-well Non-Binding Surface plates, Corning, Catalog #3824) with 50 nL of compound. The compounds were pre-incubated with 5 μL of 2× final enzyme concentration for 30 minutes before adding 5 μL of 2× final concentration of Eu-streptavidin and TR-FRET probe (10 μL final reaction volume). The plates were incubated at room temperature for 2 hours before measuring TR-FRET ratio on the Envision plate reader. IC50 values were defined as the compound concentration that causes a 50% decrease in TR-FRET ratio and were calculated using a sigmoidal dose-response model to generate curve fits.
For orientation: In TR-FRET formats the signal depends on donor and acceptor labels being close together.

A further test has as its system GP2D (KRAS G12D) cells. The experiment in a line: 2D cell viability assay (CellTiter-Glo). The class given is cell-based. The following applies: GP2d, 96 h, 4 days. On the procedure:
Example B. 2D Cell Viability Assay
Compounds were tested in a 384-well format for their ability to inhibit the viability of GP2D (KRAS G12D) cells in 2D assays. Compounds were serially diluted (1:3) in DMSO. The LabCyte ECHO Acoustic dispenser system was used to pre-spot assay plates with 200 nL of test molecule per well. 1000 cells/well (40 μL volume per well) in RPMI medium with 10% FBS, and Penicillin-Streptomycin-Glutamine were plated in pre-spotted 384-well plates (Greiner, Catalog #781076) on the BioTEK EL406 liquid dispenser with a 5 μL dispensing cassette (BioTek 7170011). The plates were incubated at 37° C., 5% CO2 for 4 days before addition of CellTiter-Glo (CTG) reagent and measurement of luminescence signal. EC50 values were defined as the compound concentration that causes a 50% decrease in luminescence signal and were calculated using a sigmoidal dose-response model to generate curve fits.
On the technique in general: In ATP-based viability assays light output follows the ATP content of the culture.

pEC50, pIC50: −log10 of the molar value.

Sequence of GDP-loaded KRAS G12D (P01116-2 other isoform, or with tags, fused parts or gaps G12D): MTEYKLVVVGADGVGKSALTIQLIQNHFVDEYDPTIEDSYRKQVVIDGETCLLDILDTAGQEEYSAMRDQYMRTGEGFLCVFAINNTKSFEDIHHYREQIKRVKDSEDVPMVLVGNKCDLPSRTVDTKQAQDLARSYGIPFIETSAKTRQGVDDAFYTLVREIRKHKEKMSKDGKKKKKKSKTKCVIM

As for `Oc1cc(-c2nc3c4c(nc(OC[C@@]56CCCN5C[C@H](F)C6)nc4c2F)N2CC4CCC(N4)[C@H]2CO3)c2ccccc2c1` (stereo in doubt) [Example 18, 4-((5aS,6S,9R)-1-fluoro-12-(((2R,7aS)-2-fluorotetrahydro-1H-pyrrolizin-7a(5H)-yl)methoxy)-5a,6,7,8,9,10-hexahydro-5H-4-oxa-3,10a,11,13,14-pentaaza-6,9-methanonaphtho[1,8-ab]heptalen-2-yl)naphthalen-2-ol], at GDP-loaded KRAS G12D, the pIC50 (as a rule, the IC50 on a negative log10 scale, so that one unit is a factor of ten) is less than 6.00. Moreover, the pEC50 (in general, the negative decadic logarithm of the EC50, by convention in mol/L) with GP2D (KRAS G12D) cells is less than 5.00.

Take `Oc1cc(-c2nc3c4c(nc(OC[C@@]56CCCN5C[C@H](F)C6)nc4c2F)N2CC4CCC(N4)[C@@H]2CO3)c2ccccc2c1` (stereo in doubt) [Example 21, 4-((5aR,6S,9R)-1-fluoro-12-(((2R,7aS)-2-fluorotetrahydro-1H-pyrrolizin-7a(5H)-yl)methoxy)-5a,6,7,8,9,10-hexahydro-5H-4-oxa-3,10a,11,13,14-pentaaza-6,9-methanonaphtho[1,8-ab]heptalen-2-yl)naphthalen-2-ol]: the pIC50 on GDP-loaded KRAS G12D is 5.68. This compound gave a pEC50 in the test with GP2D (KRAS G12D) cells of 5.51.

As for `C=C(Cl)c1c(C)ccc2cc(O)cc(-c3nc4c5c(nc(OC[C@@]67CCCN6C[C@H](F)C7)nc5c3F)N3CC5CCC(N5)[C@H]3CO4)c12` (stereo in doubt) [Example 74, 5-(1-chlorovinyl)-4-((5aS,6R,9S)-1-fluoro-12-(((2R,7aS)-2-fluorotetrahydro-1H-pyrrolizin-7a(5H)-yl)methoxy)-5a,6,7,8,9,10-hexahydro-5H-4-oxa-3,10a,11,13,14-pentaaza-6,9-methanonaphtho[1,8-ab]heptalen-2-yl)-6-methylnaphthalen-2-ol], the pIC50 on GDP-loaded KRAS G12D is 7.80. In the test with GP2D (KRAS G12D) cells, this compound had a pEC50 of 6.51.

With `C#Cc1c(F)ccc2cccc(-c3nc4c5c(nc(OC[C@@]67CCCN6C[C@@H](OC(C(F)(F)F)(C(F)(F)F)C(F)(F)F)C7)nc5c3F)N3C[C@H]5CC[C@H](N5)[C@H]3CC4)c12` (stereo in doubt) [Example 135, (5aR,6S,9R)-2-(8-ethynyl-7-fluoronaphthalen-1-yl)-1-fluoro-12-((cis-2-((1,1,1,3,3,3-hexafluoro-2-(trifluoromethyl)propan-2-yl)oxy)tetrahydro-1H-pyrrolizin-7a(5H)-yl)methoxy)-4,5,5a,6,7,8,9,10-octahydro-3,10a,11,13,14-pentaaza-6,9-methanonaphtho[1,8-ab]heptalene], the pIC50 on GDP-loaded KRAS G12D was 7.06. The compound further gave a pEC50 in the test with GP2D (KRAS G12D) cells of 7.00.

As to `C#Cc1c(F)ccc2cccc(-c3nc4c5c(nc(OC[C@@]67CCCN6C[C@@H](OC(F)(F)F)C7)nc5c3F)N3C[C@H]5CC[C@H](N5)[C@H]3CC4)c12` (stereo in doubt) [Example 140, (5aR,6S,9R)-2-(8-ethynyl-7-fluoronaphthalen-1-yl)-1-fluoro-12-((cis-2-(trifluoromethoxy)tetrahydro-1H-pyrrolizin-7a(5H)-yl)methoxy)-4,5,5a,6,7,8,9,10-octahydro-3,10a,11,13,14-pentaaza-6,9-methanonaphtho[1,8-ab]heptalene], in the test on GP2D (KRAS G12D) cells, the pEC50 was 7.12.

On GDP-loaded KRAS G12D, `C#Cc1c(F)ccc2cccc(-c3nc4c5c(nc(OC[C@]67CCCN6C[C@@H](OC(F)(F)F)C7)nc5c3F)N3C[C@H]5CC[C@H](N5)[C@H]3CC4)c12` (stereo in doubt) [Example 142, (5aR,6S,9R)-2-(8-ethynyl-7-fluoronaphthalen-1-yl)-1-fluoro-12-((trans-2-(trifluoromethoxy)tetrahydro-1H-pyrrolizin-7a(5H)-yl)methoxy)-4,5,5a,6,7,8,9,10-octahydro-3,10a,11,13,14-pentaaza-6,9-methanonaphtho[1,8-ab]heptalene] gave a negative-log IC50 (pIC50) of 8.44. For the same compound, the pEC50 with GP2D (KRAS G12D) cells was 7.02.

On GDP-loaded KRAS G12D, `Oc1cc(-c2nc3c4c(nc(OC[C@@]56CCCN5C[C@H](F)C6)nc4c2F)N2C[C@H]4CC[C@H](N4)[C@H]2CO3)c2c(F)cccc2c1` [Example 5, 5-fluoro-4-((5aS,6S,9R)-1-fluoro-12-(((2R,7aS)-2-fluorotetrahydro-1H-pyrrolizin-7a(5H)-yl)methoxy)-5a,6,7,8,9,10-hexahydro-5H-4-oxa-3,10a,11,13,14-pentaaza-6,9-methanonaphtho[1,8-ab]heptalen-2-yl)naphthalen-2-ol] showed a pIC50 of 8.52. Further, in the test on GP2D (KRAS G12D) cells, the pEC50 was 6.60.

With `Oc1cc(-c2nc3c4c(nc(OC[C@@]56CCCN5C[C@H](F)C6)nc4c2F)N2C[C@H]4CC[C@H](N4)[C@H]2CO3)c2c(F)c(Cl)ccc2c1` [Example 6, 6-chloro-5-fluoro-4-((5aS,6S,9R)-1-fluoro-12-(((2R,7aS)-2-fluorotetrahydro-1H-pyrrolizin-7a(5H)-yl)methoxy)-5a,6,7,8,9,10-hexahydro-5H-4-oxa-3,10a,11,13,14-pentaaza-6,9-methanonaphtho[1,8-ab]heptalen-2-yl)naphthalen-2-ol], the pIC50 on GDP-loaded KRAS G12D was 8.70. This compound had a pEC50 in the test with GP2D (KRAS G12D) cells of 7.15.

On GDP-loaded KRAS G12D, `Oc1cc(-c2nc3c4c(nc(OC[C@@]56CCCN5C[C@H](F)C6)nc4c2F)N2C[C@H]4CC[C@H](N4)[C@H]2CO3)c2c(OC(F)(F)F)c(F)ccc2c1` [Example 7, 6-fluoro-4-((5aS,6S,9R)-1-fluoro-12-(((2R,7aS)-2-fluorotetrahydro-1H-pyrrolizin-7a(5H)-yl)methoxy)-5a,6,7,8,9,10-hexahydro-5H-4-oxa-3,10a,11,13,14-pentaaza-6,9-methanonaphtho[1,8-ab]heptalen-2-yl)-5-(trifluoromethoxy)naphthalen-2-ol] showed a pIC50 of 9.22. Also, the pEC50 in the test on GP2D (KRAS G12D) cells is 7.80.

In the test on GP2D (KRAS G12D) cells, `C#Cc1c(F)ccc2cc(O)cc(-c3nc4c5c(nc(OC[Si](C)(C)CN6CCOCC6)nc5c3F)N3C[C@H]5CC[C@H](N5)[C@H]3CO4)c12` [Example 29, 4-((5aS,6S,9R)-12-((dimethyl(morpholinomethyl)silyl)methoxy)-1-fluoro-5a,6,7,8,9,10-hexahydro-5H-4-oxa-3,10a,11,13,14-pentaaza-6,9-methanonaphtho[1,8-ab]heptalen-2-yl)-5-ethynyl-6-fluoronaphthalen-2-ol] showed a pEC50 of less than 6.00.

`Fc1ccc2cccc(-c3nc4c5c(nc(OC[C@@]67CCCN6C[C@H](F)C7)nc5c3F)N3C[C@H]5CC[C@H](N5)[C@H]3CC4)c2c1OC(F)(F)F` [Example 65, (5aR,6S,9R)-1-fluoro-2-(7-fluoro-8-(trifluoromethoxy)naphthalen-1-yl)-12-(((2R,7aS)-2-fluorotetrahydro-1H-pyrrolizin-7a(5H)-yl)methoxy)-4,5,5a,6,7,8,9,10-octahydro-3,10a,11,13,14-pentaaza-6,9-methanonaphtho[1,8-ab]heptalene] had a pEC50 in the test on GP2D (KRAS G12D) cells of 6.35.

Consider `C#Cc1c(F)ccc2cc(O)cc(-c3nc4c5c(nc(OC[C@@]67CCCN6C[C@H](F)C7)nc5c3F)N3C[C@H]5CC[C@H](N5)[C@@H]3CC4)c12` [Example 133, 5-ethynyl-6-fluoro-4-((5aS,6S,9R)-1-fluoro-12-(((2R,7aS)-2-fluorotetrahydro-1H-pyrrolizin-7a(5H)-yl)methoxy)-4,5,5a,6,7,8,9,10-octahydro-3,10a,11,13,14-pentaaza-6,9-methanonaphtho[1,8-ab]heptalen-2-yl)naphthalen-2-ol], for which, in the test with GP2D (KRAS G12D) cells, the pEC50 was 8.96. Compared with the last compound, the pEC50 is 2.61 log units higher.
